Measured values: article PMC7722354, “7-Substituted 2-Nitro-5,6-dihydroimidazo[2,1-b][1,3]oxazines: Novel Antitubercular Agents Lead to a New Preclinical Candidate for Visceral Leishmaniasis” (Journal of Medicinal Chemistry, 2017)
pIC50: −log10 of the molar value. In brackets after ≈: the same amount, converted by molar mass.

Columns and labels:
M. tb, strain H37Rv [1] = assay: MABA minimum inhibitory concentration assay (aerobic); format: cell-based, Mycobacterium tuberculosis
M. tb, strain H37Rv [2] = assay: LORA minimum inhibitory concentration assay (hypoxic); format: cell-based; conditions: Mycobacterium tuberculosis
Leishmania donovani = assay: L. don amastigote mouse macrophage-based luciferase assay (CDRI); format: cell-based; conditions: in mouse macrophages, single test (CDRI)
Trypanosoma cruzi = assay: T. cruzi growth inhibition on MRC-5 cells (LMPH); format: cell-based; conditions: MRC5
Leishmania infantum = assay: L. inf growth inhibition in mouse macrophages (LMPH); format: cell-based; conditions: Macrophage, mean of at least two determinations
[3] = test system: human lung fibroblasts (MRC-5 cells); assay: cytotoxicity toward MRC-5 cells (LMPH); format: cell-based; conditions: MRC5
[4] = Mycobacterium tuberculosis, H37RV, read-out: MIC MABA, aerobic
[5] = Mycobacterium tuberculosis, H37RV, aerobic, read-out: MIC MABA

Row | SMILES | MIC (M. tb, strain H37Rv [1]; [4]) [µM] | MIC (M. tb, strain H37Rv [2]) [µM] | pIC50 (Leishmania donovani) | MIC (M. tb, strain H37Rv [1]; [5]) [µM] | pIC50 (Trypanosoma cruzi) | pIC50 (Leishmania infantum) | pIC50 [3] | MIC (M. tb, strain H37Rv [1]; aerobic, read-out: MIC MABA) [µM]
1 | O=[N+]([O-])c1cn2c(n1)OC(COc1ccc(-c3ccc(OC(F)(F)F)cc3)cc1)CC2 (centres unmarked) [compound 53] | 0.08 (≈ 0.0348 µg/mL) | 0.73 (≈ 0.318 µg/mL) | 7.22 | – | – | – | – | –
2 | CC1(COc2ccc(-c3ccc(F)cc3F)cn2)CCn2cc([N+](=O)[O-])nc2O1 (centres unmarked) [compound 63] | – | 2.5 (≈ 1.01 µg/mL) | – | 0.089 (≈ 0.0358 µg/mL) | 6.68 | 6.96 | < 4.19 | –
3 | O=[N+]([O-])c1cn2c(n1)OC(COc1ccc(-c3ccc(F)cc3)cn1)CC2 (centres unmarked) [compound 59, 7-({[5-(4-Fluorophenyl)pyridin-2-yl]oxy}methyl)-2-nitro-6,7-dihydro-5H-imidazo[2,1-b][1,3]oxazine] | 0.02 to 0.04 (≈ 0.00741 to 0.0148 µg/mL) | < 0.25 | 8.00 | – | – | – | – | 0.025 (≈ 0.00926 µg/mL)
4 | CC1(COc2ccc(-c3ccc(OC(F)(F)F)cc3)cc2)CCn2cc([N+](=O)[O-])nc2O1 (centres unmarked) [compound 54] | 0.11 (≈ 0.0494 µg/mL) | 1.3 (≈ 0.584 µg/mL) | 6.28 | – | – | – | – | –
5 | CC1(COc2cccc(-c3ccc(F)nc3F)n2)CCn2cc([N+](=O)[O-])nc2O1 (centres unmarked) [compound 120] | – | 7.9 (≈ 3.19 µg/mL) | – | 9.3 (≈ 3.75 µg/mL) | 6.31 | 6.23 | < 4.19 | –
6 | CC1(COc2ccc(-c3ccc(F)nc3F)cn2)CCn2cc([N+](=O)[O-])nc2O1 (centres unmarked) [compound 110] | – | 6.6 (≈ 2.66 µg/mL) | – | 1 (≈ 0.403 µg/mL) | 6.37 | 6.70 | < 4.19 | –
7 | O=[N+]([O-])c1cn2c(n1)OC(COc1ccc(-c3ccc(F)nc3)nc1)CC2 (centres unmarked) [compound 112] | 2.3 (≈ 0.854 µg/mL) | 21 (≈ 7.8 µg/mL) | 7.05 | – | – | – | – | –
8 | O=[N+]([O-])c1cn2c(n1)OC(COc1ccc(-c3ccc(F)cc3F)nc1)CC2 (centres unmarked) [compound 91] | 0.36 (≈ 0.14 µg/mL) | 8.9 (≈ 3.46 µg/mL) | 7.70 | – | – | – | – | –
9 | CC1(COC2CCN(c3ccc(F)cc3)CC2)CCn2cc([N+](=O)[O-])nc2O1 (centres unmarked) [compound 178] | 0.37 (≈ 0.144 µg/mL) | 19 (≈ 7.42 µg/mL) | – | – | – | – | – | –
10 | O=[N+]([O-])c1cn2c(n1)O[C@@H](COc1ccc(-c3ccc(OC(F)(F)F)cc3)nc1)CC2 [compound 94] | 0.02 to 0.04 (≈ 0.00873 to 0.0175 µg/mL) | 1.5 (≈ 0.655 µg/mL) | – | – | – | – | – | 0.024 (≈ 0.0105 µg/mL)
11 | C[C@]1(COCc2ccc(-c3ccc(OC(F)(F)F)cc3)cc2)CCn2cc([N+](=O)[O-])nc2O1 [compound 34, (7R)-7-Methyl-2-nitro-7-({[4′-(trifluoromethoxy)[1,1′-biphenyl]-4-yl]methoxy}methyl)-6,7-dihydro-5H-imidazo[2,1-b][1,3]oxazine] | 0.063 (≈ 0.0292 µg/mL) | 1.1 (≈ 0.51 µg/mL) | 6.62 | – | – | – | – | –
12 | CC1(COc2ccc(-c3ccc(F)cc3)cn2)CCn2cc([N+](=O)[O-])nc2O1 (centres unmarked) [compound 61] | 0.17 (≈ 0.0653 µg/mL) | 1 (≈ 0.384 µg/mL) | 7.05 | – | – | – | – | –
13 | O=[N+]([O-])c1cn2c(n1)OC(COc1ccc(OCc3ccccc3)cc1)CC2 (centres unmarked) [compound 45] | > 128 | > 128 | 7.70 | – | – | – | – | –
14 | CC1(COc2ccc(-c3ccc(F)cc3)nc2)CCn2cc([N+](=O)[O-])nc2O1 (centres unmarked) [compound 90] | 0.35 (≈ 0.135 µg/mL) | 3.9 (≈ 1.5 µg/mL) | 6.19 | – | – | – | – | –
15 | O=[N+]([O-])c1cn2c(n1)OC(CN1CCN(c3ccc(F)cc3)CC1)CC2 (centres unmarked) [compound 142, 7-{[4-(4-Fluorophenyl)piperazin-1-yl]methyl}-2-nitro-6,7-dihydro-5H-imidazo[2,1-b][1,3]oxazine] | 1.8 (≈ 0.65 µg/mL) | 9.9 (≈ 3.58 µg/mL) | 6.72 | – | – | – | – | –
16 | O=[N+]([O-])c1cn2c(n1)OC(COc1ccc(-c3ccc(OC(F)(F)F)cc3)nc1)CC2 (centres unmarked) [compound 93] | 0.02 to 0.04 (≈ 0.00873 to 0.0175 µg/mL) | 0.86 (≈ 0.375 µg/mL) | 7.30 | – | – | – | – | 0.032 (≈ 0.014 µg/mL)
17 | CC1(COc2ccc(-c3ccc(F)nc3)nc2)CCn2cc([N+](=O)[O-])nc2O1 (centres unmarked) [compound 113] | 2.7 (≈ 1.04 µg/mL) | 43 (≈ 16.6 µg/mL) | 7.05 | – | – | – | – | –
18 | O=[N+]([O-])c1cn2c(n1)OC(COc1ccc(-c3ccc(C(F)(F)F)nc3)nc1)CC2 (centres unmarked) [compound 116] | 0.12 (≈ 0.0506 µg/mL) | 58 (≈ 24.4 µg/mL) | 7.15 | – | – | – | – | –
19 | O=[N+]([O-])c1cn2c(n1)O[C@H](COc1ccc(-c3ccc(OC(F)(F)F)cc3)nc1)CC2 [compound 95] | 0.34 (≈ 0.148 µg/mL) | 1.6 (≈ 0.698 µg/mL) | – | – | – | – | – | –
20 | CC1(COc2ccc(OCc3ccccc3)cc2)CCn2cc([N+](=O)[O-])nc2O1 (centres unmarked) [compound 47] | – | > 128 | 6.92 | 0.44 (≈ 0.174 µg/mL) | – | – | – | –
21 | O=[N+]([O-])c1cn2c(n1)OC(COCc1ccc(OCc3ccccc3)cc1)CC2 (centres unmarked) [compound 22] | – | 3 (≈ 1.19 µg/mL) | 7.30 | – | – | – | – | –
22 | O=[N+]([O-])c1cn2c(n1)OC(COc1ccc(-c3ccc(C(F)(F)F)nc3)cn1)CC2 (centres unmarked) [compound 111] | 0.09 (≈ 0.0379 µg/mL) | 2.5 (≈ 1.05 µg/mL) | 6.89 | – | – | – | – | –
23 | CC1(COCc2ccc(-c3ccc(OC(F)(F)F)cc3)cc2)CCn2cc([N+](=O)[O-])nc2O1 (centres unmarked) [compound 29] | 0.093 (≈ 0.0431 µg/mL) | 1.4 (≈ 0.649 µg/mL) | – | – | – | – | – | –
24 | O=[N+]([O-])c1cn2c(n1)OC(COc1ccc(-c3ccc(F)nc3)cn1)CC2 (centres unmarked) [compound 107] | 0.074 (≈ 0.0275 µg/mL) | 15 (≈ 5.57 µg/mL) | 6.57 | – | – | – | – | –
25 | C[C@@]1(COCc2ccc(-c3ccc(OC(F)(F)F)cc3)cc2)CCn2cc([N+](=O)[O-])nc2O1 [compound 38] | 0.74 (≈ 0.343 µg/mL) | 6.8 (≈ 3.15 µg/mL) | – | – | – | – | – | –
26 | O=[N+]([O-])c1cn2c(n1)OC(CN1CCC(Oc3ccc(F)cc3)CC1)CC2 (centres unmarked) [compound 152] | 2 (≈ 0.753 µg/mL) | 22 (≈ 8.28 µg/mL) | 6.35 | – | – | – | – | –
27 | O=[N+]([O-])c1cn2c(n1)OC(COC1CCN(c3ccc(F)cc3)CC1)CC2 (centres unmarked) [compound 170] | 0.78 (≈ 0.294 µg/mL) | 20 (≈ 7.53 µg/mL) | – | – | – | – | – | –
28 | CC1(COc2ccc(-c3ccc(F)nc3)cn2)CCn2cc([N+](=O)[O-])nc2O1 (centres unmarked) [compound 108] | 1.9 (≈ 0.732 µg/mL) | 6.2 (≈ 2.39 µg/mL) | 6.66 | – | – | – | – | –
29 | CC1(COCc2ccc(OCc3ccccc3)cc2)CCn2cc([N+](=O)[O-])nc2O1 (centres unmarked) [compound 23] | – | 1.4 (≈ 0.573 µg/mL) | 6.55 | 0.2 (≈ 0.0819 µg/mL) | – | – | – | –
30 | O=[N+]([O-])c1cn2c(n1)OC(COc1ccc(OC(F)(F)F)cc1)CC2 (centres unmarked) [compound 39] | 5.2 (≈ 1.87 µg/mL) | 4.7 (≈ 1.69 µg/mL) | 7.40 | – | – | – | – | –
